Assay results reported in ChEMBL document CHEMBL5724796, “Tm Shift (DSF) assay results for EUbOPEN Chemogenomics Library” (2024).
Non-standard residues stand in square brackets, D forms with d. Residues, ends and D or L forms follow the SMILES beside them. *: point of attachment. Benzoyl(4-tBu) = CC(C)(C)c1ccc(C(=O)*)cc1; Lys(Et2) = CCN(CC)CCCC[C@H](N)C(=O)O; Cbz = O=C(OCc1ccccc1)*; CH2F = FC*

Tests used:
[1] = biological target: Fibroblast growth factor receptor 2 (Homo sapiens) (UniProt P21802); details: Compound concentration 20.0 uM
Description: Thermal Shift Assay. Domain: start/stop: T457-E768

Peregrin (Homo sapiens) = biological target: T1, Peregrin (Homo sapiens) (UniProt P55201); details: Compound concentration 20.0 uM
T1 sequence (whole entry): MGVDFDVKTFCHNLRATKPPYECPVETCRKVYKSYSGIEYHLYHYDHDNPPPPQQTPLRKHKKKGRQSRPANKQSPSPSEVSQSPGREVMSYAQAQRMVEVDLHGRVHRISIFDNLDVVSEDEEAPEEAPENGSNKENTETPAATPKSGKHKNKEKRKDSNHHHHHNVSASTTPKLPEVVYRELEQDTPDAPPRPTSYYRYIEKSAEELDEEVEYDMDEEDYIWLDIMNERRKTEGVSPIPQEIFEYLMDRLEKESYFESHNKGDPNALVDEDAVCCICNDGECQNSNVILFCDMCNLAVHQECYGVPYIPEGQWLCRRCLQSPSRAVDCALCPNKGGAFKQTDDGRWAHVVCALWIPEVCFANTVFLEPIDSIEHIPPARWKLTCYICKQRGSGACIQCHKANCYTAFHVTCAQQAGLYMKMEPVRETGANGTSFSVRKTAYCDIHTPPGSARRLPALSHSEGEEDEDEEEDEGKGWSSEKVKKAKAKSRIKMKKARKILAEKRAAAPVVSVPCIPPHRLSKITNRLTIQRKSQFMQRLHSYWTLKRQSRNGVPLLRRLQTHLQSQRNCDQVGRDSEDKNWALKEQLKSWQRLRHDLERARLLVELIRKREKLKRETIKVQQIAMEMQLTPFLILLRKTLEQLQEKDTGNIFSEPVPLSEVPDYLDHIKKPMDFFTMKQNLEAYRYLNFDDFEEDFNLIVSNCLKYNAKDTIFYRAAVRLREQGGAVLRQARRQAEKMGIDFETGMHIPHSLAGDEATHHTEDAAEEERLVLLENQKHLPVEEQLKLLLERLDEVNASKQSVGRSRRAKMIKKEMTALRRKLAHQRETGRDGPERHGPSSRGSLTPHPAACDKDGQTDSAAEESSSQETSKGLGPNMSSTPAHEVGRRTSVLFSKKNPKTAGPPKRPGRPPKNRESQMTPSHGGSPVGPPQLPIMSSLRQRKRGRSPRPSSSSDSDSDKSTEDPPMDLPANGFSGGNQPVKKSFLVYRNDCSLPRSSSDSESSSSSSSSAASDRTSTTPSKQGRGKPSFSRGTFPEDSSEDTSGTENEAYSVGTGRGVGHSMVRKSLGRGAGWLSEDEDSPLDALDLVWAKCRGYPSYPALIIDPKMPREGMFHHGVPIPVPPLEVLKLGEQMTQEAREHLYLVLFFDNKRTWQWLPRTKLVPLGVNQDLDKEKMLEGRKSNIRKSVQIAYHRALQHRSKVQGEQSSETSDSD

Fibroblast growth factor receptor 2 (Homo sapiens), sequence (P21802 22-821 limits assumed): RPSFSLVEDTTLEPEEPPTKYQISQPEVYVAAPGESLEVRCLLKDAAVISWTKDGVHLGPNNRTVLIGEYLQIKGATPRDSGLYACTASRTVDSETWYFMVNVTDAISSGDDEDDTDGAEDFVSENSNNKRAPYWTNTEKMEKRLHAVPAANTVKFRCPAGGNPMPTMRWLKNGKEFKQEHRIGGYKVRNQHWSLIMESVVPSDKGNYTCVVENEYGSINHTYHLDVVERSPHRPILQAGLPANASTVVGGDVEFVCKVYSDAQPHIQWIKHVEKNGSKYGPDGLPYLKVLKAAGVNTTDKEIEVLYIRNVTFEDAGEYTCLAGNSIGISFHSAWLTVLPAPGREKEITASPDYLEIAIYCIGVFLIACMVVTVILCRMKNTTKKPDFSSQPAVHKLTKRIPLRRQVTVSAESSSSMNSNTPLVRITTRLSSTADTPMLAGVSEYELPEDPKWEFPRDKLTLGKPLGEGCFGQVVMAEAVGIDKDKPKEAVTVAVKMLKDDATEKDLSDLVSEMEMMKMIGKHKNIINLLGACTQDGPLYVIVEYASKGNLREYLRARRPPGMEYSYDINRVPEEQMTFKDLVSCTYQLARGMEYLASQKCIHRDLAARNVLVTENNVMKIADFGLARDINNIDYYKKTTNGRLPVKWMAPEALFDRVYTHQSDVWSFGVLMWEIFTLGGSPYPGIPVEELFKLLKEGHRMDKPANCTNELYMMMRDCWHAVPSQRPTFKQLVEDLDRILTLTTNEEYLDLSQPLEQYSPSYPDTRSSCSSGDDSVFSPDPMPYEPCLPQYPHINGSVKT

SMILES | ΔTm [1] [°C] | ΔTm (Peregrin (Homo sapiens)) [°C]
O=C(O)CCNC(=S)NCCCC[C@H](NS(=O)(=O)c1cccc(F)c1)C(=O)N[C@@H](Cc1c[nH]c2ccccc12)C(=O)NC1CCC1 | -0.15 | 1.86
Cc1ccc2[nH]c3c(c2c1)CCCC3C(N)=O (stereo not drawn) | 0.03 | 0.79
O=C(c1cc(Cc2n[nH]c(=O)c3ccccc23)ccc1F)N1CCn2nc(C(F)(F)F)nc2C1 | -0.57 | 0.87
Cc1cc(-n2cccc2)c(S(C)(=O)=O)cc1C(=O)N=C(N)N | -0.71 | 2.16
CC(C)(O)c1ccc(N2Cc3c(ccnc3-c3ccc(F)cc3OCC(F)(F)F)C2=O)cc1 | -4.87 | -1.27
CC(=O)NCC(=O)N1CCC[C@@H]1B(O)O | 0.51 | 2.29
COc1cc(-c2cn(C)c(=O)c3cnccc23)cc(OC)c1CN(C)C | 0.18 | 6.51
CC(=O)N1CCc2c(c(N3CCCc4cc(-c5cnn(C)c5)c(C(F)F)cc43)nn2C2CCOCC2)C1 | 0.45 | -1.44
O=C(CNC(=O)[C@H](COP(=O)(O)O)NC(=O)CCc1c[nH]c2ccccc12)NCCCCc1ccccc1 | 0.74 | 2.14
CCCCCCCCCCCCCC(=S)NCCCC[C@H](NC(=O)OCc1ccccc1)C(=O)Nc1ccccc1 | 0.84 | 3.33
N=C(N)SCc1ccc(CN2C(=O)C(=O)c3cc(C(F)(F)F)ccc32)cc1 | 0.77 | 0.27
C[C@@H](Oc1ccc(S(C)(=O)=O)cc1C(=O)N1C[C@@H]2C[C@]2(c2cc(C(F)(F)F)on2)C1)C(F)(F)F | -0.81 | 0.16
COc1cc2c(NCC3CCN(C)CC3)cc(-c3ccc(C)o3)nc2cc1OCCCN1CCCC1 | 0.16 | -0.88
CN1CCN(c2cc(C(=O)Nc3ncc(SCc4cccc(C(F)(F)F)c4)s3)ccn2)CC1 | 0.89 | -1.6
Cn1ncc2c(-c3c(-c4ccc(F)cn4)nn4c3COC(C)(C)C4)ccnc21 | 1.01 | -1.06
CCn1ncc2c(NC3CCOCC3)c(-c3nnc(Cc4sc(C)nc4C)o3)cnc21 | 0.47 | 0.65
CCC(=O)N[C@H]1CC[C@@H](C(=O)N(C)c2ccc(-c3nc4ccccc4o3)cc2)C1 | 0.23 | 0.27
CCc1c(C#N)c(S[C@@H](C(N)=O)c2ccccc2)nc(N(C)C)c1C#N | -0.11 | 2.36
C[C@@H](COCCC(=O)N1CCN(c2ncc(C(F)(F)F)cn2)CC1)Nc1cn[nH]c(=O)c1C(F)(F)F | 0.24 | 0.01
CC(C)(C)c1ccc(CN(C(=O)CN(Cc2c(F)c(F)c(F)c(F)c2F)S(=O)(=O)c2ccc(F)cc2)c2ccc(C(=O)NO)cc2)cc1 | 1.58 | -3.76
CNc1ncc2cc(-c3cc(NC(=O)NCCC(C)(C)C)c(F)cc3C)c(C)nc2n1 | 5.58 | -0.16
CC(=O)N[C@@H](CC(=O)O)C(=O)N[C@@H](CCC(=O)O)C(=O)N[C@H](C(=O)N[C@H](C=O)CC(=O)O)C(C)C | -0.22 | -1.4
O=C(NO)c1ccc(CN(c2cnccn2)c2cnccn2)cc1 | -0.14 | -0.86
CC(C)CCn1c(CN2CCN(C(=O)C3CC3)CC2)nc2c1c(=O)n(C)c(=O)n2C | -0.8 | 1.75
CNCCC(Oc1ccccc1OC)c1ccccc1 (stereo not drawn) | 0.13 | 1.17
CCN(CC)CCCC[C@H](NC(=O)[C@H](CC(C)C)NC(=O)[C@H](C)NC(=O)[C@H](Cc1ccccc1)NC(=O)c1ccc(C(C)(C)C)cc1)C(=O)N[C@@H](CO)C(=O)OC ({Benzoyl(4-tBu)}-FAL[Lys(Et2)]S-OMe) | 0.43 | -1.51
CC1C(C#N)=C(N)OC2=C1C(=O)CC(c1cccc3ccccc13)C2 (stereo not drawn) | -1.52 | 1.86

SMILES | ΔTm [1] [°C] | ΔTm (Peregrin (Homo sapiens)) [°C]
Oc1nc(-c2ccc(C(F)(F)F)cc2)nc2c1CSCC2 | -0.47 | 0.57
Cc1cc(S(C)(=O)=O)c(S(C)(=O)=O)cc1C(=O)NC(=N)N | 0 | 2.74
O=C(c1cc(Cc2n[nH]c(=O)c3ccccc23)ccc1F)N1CC(CNC2CC2)C1 | -0.3 | -0.32
CC(=O)N[C@@H](Cc1ccc(O)cc1)C(=O)N[C@H](C(=O)N[C@@H](C)C(=O)N[C@H](C=O)CC(=O)O)C(C)C | 0.54 | -1.25
Cc1cc(-c2ccc3nc(C4CCOCC4)n(CCOC(F)(F)F)c3c2)cn(C)c1=O | 0.33 | 4.67
N#Cc1cc(F)cc(Oc2ccc3c(c2C(F)F)[C@@H](O)C(F)(F)S3(=O)=O)c1 | -0.59 | 2.23
O=C(c1cc(O)c(O)c([N+](=O)[O-])c1)c1ccccc1F | -0.06 | 1.4
CCN(C(=O)c1cc(F)ccc1Oc1cncnc1N1CC2(CCN(C[C@H]3CC[C@H](NS(=O)(=O)CC)CC3)CC2)C1)C(C)C | 0.21 | 0.45
Cn1cc(NC(=O)c2cc(F)cc(F)c2)c(C(=O)NC2CCNCC2)n1 | 0.66 | -1.44
c1cncc(-c2cnn[nH]2)c1 | 0.33 | 0.36
COC(=O)[C@H]1[C@H]2C[C@@H]3c4[nH]c5cc(OC)ccc5c4CCN3C[C@H]2C[C@@H](OC(=O)c2cc(OC)c(OC)c(OC)c2)[C@@H]1OC | -0.07 | 0.08
O=C(NCCCc1ccccc1)c1cccc(-c2cc(O)c3ncccc3c2)c1 | 0.19 | 3.29
CS(=O)(=O)c1ncn2c(NCc3c(F)ccc4c3CCO4)ncc(-c3ccc(C4CC4)nc3)c12 | -0.76 | -0.81
O=c1[nH]c(CS[C@H]2CC[C@H](O)CC2)nc2cc(OCC3CC3)cc(F)c12 | -0.27 | -0.24
O=C(NC(Cc1ccccc1)C(=O)NC(Cc1ccccc1)C(=O)CF)OCc1ccccc1 (stereo not drawn) (Cbz-Phe-Phe-CH2F; configuration not given here) | 0.39 | 1.77
O=C1c2ccccc2C(=O)c2oc(-c3ccccc3)nc21 | -1.3 | 1.63
NCCCOc1cc2ccccc2cc1C(=O)NCCOc1cc2ccccc2cc1C(=O)Nc1ccc(Cl)cc1O | -1.59 | 0
C[C@@H](Nc1nc2c(cnn2C2CCCC2)c(=O)[nH]1)C(=O)N1CC[C@H](F)C1 | -0.04 | -0.37
NC(=O)C1CCCc2c1[nH]c1ccc(Cl)cc21 (stereo not drawn) | 0.23 | 2.61
C[C@H](NC(=O)c1cn(C2(C#N)CC2)cn1)C(=O)Nc1nc(-c2cccc(-c3ccn(C)n3)c2)cs1 | 0.8 | -0.85
CC(C)c1cnc(CSc2cnc(NC(=O)C3CCNCC3)s2)o1 | 0.73 | -1.67
N=C(N)N/N=C/c1cccc(Cl)c1Cl | 0.87 | -0.71
CCCOc1cccc(Oc2cc3c(cc2NS(=O)(=O)c2cccc(C(=O)NCCOCCOCCOCC(=O)N[C@H](C(=O)N4C[C@H](O)C[C@H]4C(=O)NCc4ccc(-c5scnc5C)cc4)C(C)(C)C)c2)n(C)c(=O)n3C)c1 | -3.12 | 1.17
N[C@H]1CC[C@H](N[C@@H]2C[C@H]2c2ccccc2)CC1 | 0.55 | 1.23
O=C(NO)c1ccc(CN2CCCc3cc(Cl)ccc32)cc1 | 0.45 | -1.37
Cc1ccc([N+](=O)[O-])cc1S(=O)(=O)N(C)C | -0.67 | 2.57
CCS(=O)(=O)Cc1cnc(Oc2ccc(F)cc2F)c(-c2cc(C)c3c(=O)[nH]ccn23)c1 | 0.35 | 2.87
